Columns and labels:
Type in all cases: biochemical
Plutella xylostella GSTs = assay: Inhibition of total GSTs enzyme of Plutella xylostella (CDNB method)
Description: (§1) Experiment: About 50 mg of larvae/nymphs of nine major pests such as Plutella xylostella, Mythimna separata, Pyrausta nubilalis, Chilo suppressalis, Nilaparvata lugens, Spodoptera frugiperda, Helicoverpa armigera, Carposina sasakii, Spodoptera litura were taken, grounded in a mortar pre-cooled at −80° C., and then 1 mL of 100 mM sodium phosphate buffer (1 mM EDTA, pH 7.2) was added and fully homogenized. The homogenate was transferred to a 1.5 mL centrifuge tube at 4° C., and centrifuged at 14,000 g for 30 minutes, and the supernatant was transferred to a new centrifuge tube as the GSTs total enzyme. The protein concentrations of the above total enzymes were determined using the BCA method.
(§2) 100 μL of PBS buffer (100 mM, pH 7.2) containing 1 mM GSH was taken and placed in a 96-well plate, 5 μg of insect total GSTs enzymes and an appropriate concentration of compounds PXG1-PXG29 (29 compounds) of the present invention were added to each well, after uniformly mixing, and allowed to stand at 30° C. for 10 min. Then 100 μL of PBS buffer (100 mM, pH 7.2) containing 1 mM CDNB was added to each well. Immediately after mixing, the mixture was placed in a microplate reader to measure the absorbance at a wavelength of 340 nm (A 340) once every 1 min, the measurement was carried out continuously for 5 min, the light absorption values of each measuring point were recorded and the inhibition rate in vitro of the compounds with different concentrations against insects total GSTs enzymes were calculated. Each group of assays was repeated three times, and total GSTs enzymes inactivated at 100° C. for 5 min were used as negative controls, and GTX was used as positive controls. GraphPad Prism 5 software was used for analysis and calculation of IC50. Relative inhibition was calculated using the following formula:
(§3) [formula] • wherein, A340 is the change of A340 within 5 minutes for the control group, and A340t is the change of A340 within 5 minutes for the experimental group.

Carposina sasakii GSTs = assay: Inhibition of total GSTs enzyme of Carposina sasakii (CDNB method)
Description: as §1, §2, §3

Spodoptera litura GSTs = assay: Inhibition of total GSTs enzyme of Spodoptera litura (CDNB method)
Description: as §1, §2, §3

Mythimna separata GSTs = assay: Inhibition of total GSTs enzyme of Mythimna separata (CDNB method)
Description: as §1, §2, §3

Pyrausta nubilalis GSTs = assay: Inhibition of total GSTs enzyme of Pyrausta nubilalis (CDNB method)
Description: as §1, §2, §3

Chilo suppressalis GSTs = assay: Inhibition of total GSTs enzyme of Chilo suppressalis (CDNB method)
Description: as §1, §2, §3

Nilaparvata lugens GSTs = assay: Inhibition of total GSTs enzyme of Nilaparvata lugens (CDNB method)
Description: as §1, §2, §3

[1] = target: Spodoptera frugiperda GSTs; assay: Inhibition of total GSTs enzyme of Spodoptera frugiperda (CDNB method)
Description: as §1, §2, §3

[2] = target: Helicoverpa armigera GSTs; assay: Inhibition of total GSTs enzyme of Helicoverpa armigera (CDNB method)
Description: as §1, §2, §3

PxGSTδ1 = PxGSTδ1 (Plutella xylostella, UniProt D7URW9); assay: Inhibition of PxGSTδ1 recombinant protein; settings: read-out: 100 μM Inhibition rate %
Chain of PxGSTδ1 (D7URW9 entry or part of it): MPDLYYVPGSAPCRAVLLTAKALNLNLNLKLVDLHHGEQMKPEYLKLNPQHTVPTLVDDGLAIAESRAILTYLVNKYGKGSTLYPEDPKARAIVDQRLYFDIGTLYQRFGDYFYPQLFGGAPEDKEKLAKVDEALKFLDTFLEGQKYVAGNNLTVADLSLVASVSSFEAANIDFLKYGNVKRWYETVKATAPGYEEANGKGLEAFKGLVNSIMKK
Description: (§4) Experiment: 100 μL of PBS buffer (100 mM, pH 7.2) was taken and added to a 96-well plate, 1 μg of PxGSTs recombinant protein and an appropriate concentration of the compounds PXG1-PXG29 of the present invention were added to each well, after uniformly mixing, and allowed to stand at 30° C. for 10 min. Then 100 μL of PBS buffer (100 mM, pH 7.2) containing 1 mM CDNB and 1 mM GSH was successively added to each well. Immediately after mixing, the mixture was placed in a microplate reader to measure the absorbance at a wavelength of 340 nm (A340) once every 1 min, the measurement was continued for 5 min, the light absorption values of each measuring point were recorded and the inhibition rate in vitro of the compounds PXG1-PXG29 of the present invention with different concentrations against PxGSTs recombinant protein were calculated. Each group of assays was repeated three times, and PxGSTs recombinant protein inactivated at 100° C. for 5 min was used as negative control, and GTX was used as positive control. GraphPad Prism 5 software was used for analysis and calculation of IC50. Relative inhibition was calculated using the following formula:
(§5) [formula] • wherein, A340c is the change of A340 […] the control group, an A340t is the change of A340 within 5 minutes for the experimental group.

PxGSTσ1 = PxGSTσ1 (Plutella xylostella, UniProt Q6F436); assay: Inhibition of PxGSTσ1 recombinant protein; settings: read-out: 100 μM Inhibition rate %
Chain of PxGSTσ1 (Q6F436 entry or part of it): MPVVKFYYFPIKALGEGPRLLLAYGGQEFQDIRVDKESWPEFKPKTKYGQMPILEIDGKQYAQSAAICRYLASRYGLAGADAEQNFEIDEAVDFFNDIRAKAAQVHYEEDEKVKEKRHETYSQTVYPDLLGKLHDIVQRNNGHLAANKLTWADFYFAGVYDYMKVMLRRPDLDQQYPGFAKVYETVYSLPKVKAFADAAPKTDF
Description: as §4, §5

PxGSTσ2 = PxGSTσ2 (Plutella xylostella, UniProt Q6F443); assay: Inhibition of PxGSTσ2 recombinant protein; settings: read-out: 100 μM Inhibition rate %
Chain of PxGSTσ2 (Q6F443 entry or part of it): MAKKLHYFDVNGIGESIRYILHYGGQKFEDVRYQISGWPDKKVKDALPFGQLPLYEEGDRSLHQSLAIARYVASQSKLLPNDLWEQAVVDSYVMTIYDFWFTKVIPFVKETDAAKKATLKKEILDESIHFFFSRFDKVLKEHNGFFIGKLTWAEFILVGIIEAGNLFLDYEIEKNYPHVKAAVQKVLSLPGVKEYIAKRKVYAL
Description: as §4, §5

PxGSTε3 = PxGSTε3 (Plutella xylostella, UniProt O77409); assay: Inhibition of PxGSTε3 recombinant protein; settings: read-out: 100 μM Inhibition rate %
Chain of PxGSTε3 (O77409 entry or part of it): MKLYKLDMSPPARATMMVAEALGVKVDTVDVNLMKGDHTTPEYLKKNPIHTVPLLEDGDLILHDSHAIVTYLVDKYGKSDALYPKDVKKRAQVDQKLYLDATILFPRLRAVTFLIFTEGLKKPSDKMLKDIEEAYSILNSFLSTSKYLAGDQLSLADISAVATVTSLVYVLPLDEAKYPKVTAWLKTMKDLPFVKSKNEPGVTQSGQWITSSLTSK
Description: as §4, §5

| SMILES | IC50 (Plutella xylostella GSTs) [µM] | 100 μM Inhibition rate % (Plutella xylostella GSTs) [%] | IC50 (Carposina sasakii GSTs) [µM] | 100 μM Inhibition rate % (Carposina sasakii GSTs) [%] | IC50 (Spodoptera litura GSTs) [µM] | 100 μM Inhibition rate % (Spodoptera litura GSTs) [%] | IC50 (Mythimna separata GSTs) [µM] | 100 μM Inhibition rate % (Mythimna separata GSTs) [%] | IC50 (Pyrausta nubilalis GSTs) [µM] | 100 μM Inhibition rate % (Pyrausta nubilalis GSTs) [%] | IC50 (Chilo suppressalis GSTs) [µM] | 100 μM Inhibition rate % (Chilo suppressalis GSTs) [%] | IC50 (Nilaparvata lugens GSTs) [µM] | 100 μM Inhibition rate % (Nilaparvata lugens GSTs) [%] | IC50 [1] [µM] | 100 μM Inhibition rate % [1] [%] | IC50 [2] [µM] | 100 μM Inhibition rate % [2] [%] | inhibition at 100 µM (PxGSTδ1) [%] | inhibition at 100 µM (PxGSTσ1) [%] | other results |
| --- | --- | --- | --- | --- | --- | --- | --- | --- | --- | --- | --- | --- | --- | --- | --- | --- | --- | --- | --- | --- | --- |
| O=C(COc1ccccc1)NNC(=O)c1cc(-c2ccccc2)nn1-c1ccccc1 [PXG5, N′-(1,3-diphenyl-1H-pyrazol-5-yl-carbonyl)-2-phenoxyacetohydrazide] | > 100 | 11.58 | > 100 | 23.22 | > 100 | 37.80 | > 100 | 47.24 | > 100 | 14.08 | > 100 | 28.17 | > 100 | 23.90 | > 100 | 31.42 | > 100 | 9.57 | 81.7 | 35.6 | inhibition at 100 µM (PxGSTσ2): 24.5%; inhibition at 100 µM (PxGSTε3): -2.97% |
| CN(C)S(=O)(=O)c1cccc(C(=O)NNC(=O)c2cc(-c3ccccc3)nn2-c2ccccc2)c1 [PXG9, 3-[N′-(1,3-diphenyl-1H-pyrazol-5-yl-carbonyl) hydrazinocarbonyl]-N,N-dimethylphenyl-1-sulfonamide] | > 100 | 3.94 | > 100 | 12.55 | > 100 | 12.58 | > 100 | 2.72 | > 100 | 5.71 | > 100 | 34.79 | > 100 | −10.48 | > 100 | 5.56 | > 100 | 5.25 | 30.4 | 28.6 | inhibition at 100 µM (PxGSTσ2): 31.4%; inhibition at 100 µM (PxGSTε3): -3.88% |
| COc1ccccc1CC(=O)NNC(=O)c1cc(-c2ccccc2)nn1-c1ccccc1 [PXG10, N′-(1,3-diphenyl-1H-pyrazol-5-yl-carbonyl)-2-(2-methoxyphenyl) acetohydrazide] | > 100 | −17.71 | > 100 | 32.54 | > 100 | 3.87 | > 100 | −2.50 | > 100 | −3.85 | > 100 | 5.85 | > 100 | 19.24 | > 100 | 20.93 | > 100 | 9.75 | 91 | 29.4 | inhibition at 100 µM (PxGSTσ2): 19.2%; inhibition at 100 µM (PxGSTε3): 2.03% |

Further lines, with some results ahead:

| IC50 (Plutella xylostella GSTs) [µM] | 100 μM Inhibition rate % (Plutella xylostella GSTs) [%] | IC50 (Carposina sasakii GSTs) [µM] | 100 μM Inhibition rate % (Carposina sasakii GSTs) [%] | IC50 (Spodoptera litura GSTs) [µM] | 100 μM Inhibition rate % (Spodoptera litura GSTs) [%] | IC50 (Mythimna separata GSTs) [µM] | 100 μM Inhibition rate % (Mythimna separata GSTs) [%] | IC50 (Pyrausta nubilalis GSTs) [µM] | 100 μM Inhibition rate % (Pyrausta nubilalis GSTs) [%] | IC50 (Chilo suppressalis GSTs) [µM] | 100 μM Inhibition rate % (Chilo suppressalis GSTs) [%] | IC50 (Nilaparvata lugens GSTs) [µM] | 100 μM Inhibition rate % (Nilaparvata lugens GSTs) [%] | IC50 [1] [µM] | 100 μM Inhibition rate % [1] [%] | IC50 [2] [µM] | 100 μM Inhibition rate % [2] [%] | inhibition at 100 µM (PxGSTδ1) [%] | inhibition at 100 µM (PxGSTσ1) [%] | SMILES | other results |
| --- | --- | --- | --- | --- | --- | --- | --- | --- | --- | --- | --- | --- | --- | --- | --- | --- | --- | --- | --- | --- | --- |
| > 100 | 21.15 | > 100 | 18.21 | > 100 | 6.90 | > 100 | 38.85 | > 100 | 13.70 | > 100 | 15.98 | > 100 | −1.46 | > 100 | 11.37 | > 100 | 23.21 | 12.2 | 49.1 | O=C(NN1C(=O)NC2(CCCCC2)C1=O)c1cc(-c2ccccc2)nn1-c1ccccc1 [PXG6] | inhibition at 100 µM (PxGSTσ2): 33.6%; inhibition at 100 µM (PxGSTε3): 4.85% |
| > 100 | 22.90 | > 100 | 76.09 | > 100 | 24.52 | > 100 | 31.76 | > 100 | 23.84 | > 100 | 54.79 | > 100 | 8.16 | > 100 | 20.95 | > 100 | 8.09 | 35.3 | 60.7 | O=C(NNC(=O)c1cc(-c2ccccc2)nn1-c1ccccc1)c1ccccc1 [PXG11, N′-(1,3-diphenyl-1H-pyrazol-5-yl-carbonyl) benzohydrazine] | inhibition at 100 µM (PxGSTσ2): 22.6%; inhibition at 100 µM (PxGSTε3): -7.28% |
| > 100 | 15.08 | > 100 | 17.94 | > 100 | 4.60 | > 100 | 19.42 | > 100 | 19.48 | > 100 | 29.54 | > 100 | −3.30 | > 100 | 12.52 | > 100 | −5.00 | 40.2 | 48.3 | CC1(c2ccccc2)NC(=O)N(NC(=O)c2cc(-c3ccccc3)nn2-c2ccccc2)C1=O (centres unmarked) [PXG12, N-(4-methyl-2,5-dioxo-4-phenylimidazolin-1-yl)-1,3-diphenyl-1H-pyrazol-5-yl-carboxamide] | inhibition at 100 µM (PxGSTσ2): 33.6%; inhibition at 100 µM (PxGSTε3): 10.9% |
| > 100 | 16.83 | > 100 | 17.01 | > 100 | −5.22 | > 100 | 4.29 | > 100 | 4.69 | > 100 | 18.72 | > 100 | 2.97 | > 100 | 0.41 | > 100 | −1.48 | 7.86 | 42.5 | CC1(CCc2ccccc2)NC(=O)N(NC(=O)c2cc(-c3ccccc3)nn2-c2ccccc2)C1=O (centres unmarked) [PXG15, N-[4-methyl-2,5-dioxo-4-(2-phenylethyl)imidazolin-1-yl]-1,3-diphenyl-1H-pyrazol-5-yl-carboxamide] | inhibition at 100 µM (PxGSTσ2): 25.6%; inhibition at 100 µM (PxGSTε3): 4.62% |
| > 100 | 8.64 | > 100 | 6.98 | > 100 | −0.15 | > 100 | 10.50 | > 100 | 0.41 | > 100 | 10.53 | > 100 | −1.00 | > 100 | −1.72 | > 100 | 2.28 | 5.35 | 70.5 | CC1CCC2(CC1)NC(=O)N(NC(=O)c1cc(-c3ccccc3)nn1-c1ccccc1)C2=O (centres unmarked) [PXG16, N-{8-methyl-2,4-dioxo-1,3-diazaspiro[4.5]dec-3-yl}-1,3-diphenyl-1H-pyrazol-5-yl-carboxamide] | inhibition at 100 µM (PxGSTσ2): 39.3%; inhibition at 100 µM (PxGSTε3): 4.12% |

— patent US12617771B2, “Diphenylpyrazole compound, and preparation method therefor and application thereof” (NORTHWEST A&F UNIVERSITY, priority 2021, dated 2026)
